Assay [1] has as its system Staphylococci resistant to synergistic mixtures of A and B compounds. The following applies: Allignet et al., 1996; cited from earlier work.
The test system of assay [2] is S. aureus recipient RN4220 transformants with pIP1717. The experiment in a line: MIC by serial twofold dilutions in MHA, S. aureus RN4220 transformants carrying pIP1717 (vgaB). The assay is classed as cell-based. The following applies: Staphylococcus aureus; S. aureus RN4220 transformants with pIP1717 (2.4 kb HindIII-HaeIII fragment carrying vgaB), selected on 10 μg/ml erythromycin; read-out: PIIA MICs. The source says:
First, the 2.4 kb HindIII-HaeIII fragment of pIP 1675, which contains only 10 nucleotide from vatB, was inserted into plasmid pOX300, and the recombinant plasmid, pIP1717 (FIG. 1B), was introduced by electroporation into the S. aureus recipient, RN4220 (Kreiswirth et al., 1983). Plasmid pOX300, also named pOX7, (Dyke and Curnock, 1989), is a hybrid of pUC18 and pE194ts and replicates in E. coli where it confers resistance to ampicillin and to erythromycin, and in S. aureus where only resistance to erythromycin is expressed. The S. aureus transformants selected on 10 μg/ml erythromycin were resistant to streptogramin A and related compounds (PIIA MICs=8-16 μg/ml). Thus, the 2.4-kb HindIII-HaeIII insert of pIP1717 (FIG. 1B) probably carried a streptogramin A resistance gene and was sequenced. The nucleotide (nucleotide) sequence of this fragment was determined by the dideoxy method (Sanger et al., 1977) with the reagents and the procedure recommended by the suppliers of the T^7 sequencing kit (Pharmacia International). Arrows indicate the direction and extent of each dideoxy-sequencing reaction. (FIG. 1B).
(§1) Minimal inhibitory concentrations (MICs) of antibiotics were determined by serial twofold dilutions of antibiotics in MHA (Ericson H. M. and S. C. Sherris, ActaPathol. Microbiol. Scand., 1971, Suppl. 217:Section B).

Assay [3] concerns S. aureus recipient strain RN4220 transformant harboring pIP1714. The experiment in a line: Susceptibility to antimicrobial agents, S. aureus RN4220 transformant harboring pIP1714 (vatC, vgbB). The assay is classed as cell-based, Staphylococcus aureus. The following applies: RN4220 transformant with pIP1714, selected on BHIA with 10 μg/ml pristinamycin IIA. The procedure: The strain BM10711 harbored several plasmids including pIP1714 (5kb). This plasmid was […] by electroporation in a S. aureus recipient strain, RN4220. The transformant, harboring pIP1714, was selected on BHIA containing 10 μg/ml pristinamycin IIA.
Susceptibility to antimicrobial agents was determined with a disk diffusion assay and commercially available disks (Diagnostic Pasteur). Additional disks prepared in our laboratory contained streptogramin A (20 μg) or streptogramin B (40 μg).
as §1

Consider `CC1=C\[C@@H](O)CC(=O)Cc2nc(co2)C(=O)N2CCC=C2C(=O)O[C@H](C(C)C)[C@H](C)/C=C/C(=O)NC\C=C\1` [PIIA, pristinamycin IIA], for which the MIC was no less than 8 µg/mL in assay [1] and 8 to 16 µg/mL in assay [2]. In the case of streptogramin A, in assay [3], the “resistance conferred by plasmid” value is “resistances”.

Consider streptogramin B, for which, in assay [3], the “resistance conferred by plasmid” value is reported as “resistances”.

Values taken from patent US6506893B1, “Polynucleotides and their use for detecting resistance to streptogramin A or to streptogramin B and related compounds” (priority 1997, dated 2003).
